Biological target: T1, cathepsin C (CatC; dipeptidyl peptidase 1) (Homo sapiens, UniProt P53634)
T1 construct: gene CTSC
Experiment: surface plasmon resonance with isolated human CatC (pH […]); enzymatic IC50 […]
Format: binding

T1 sequence (P53634 25-134): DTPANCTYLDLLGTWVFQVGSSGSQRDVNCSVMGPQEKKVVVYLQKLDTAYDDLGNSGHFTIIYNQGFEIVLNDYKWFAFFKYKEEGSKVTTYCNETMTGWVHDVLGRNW
T1 sequence (P53634 231-394): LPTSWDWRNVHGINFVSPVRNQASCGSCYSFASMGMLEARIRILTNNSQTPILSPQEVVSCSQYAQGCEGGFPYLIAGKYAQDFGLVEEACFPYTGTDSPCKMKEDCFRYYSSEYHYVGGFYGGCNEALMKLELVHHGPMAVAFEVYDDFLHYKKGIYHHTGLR
T1 sequence (P53634 395-463): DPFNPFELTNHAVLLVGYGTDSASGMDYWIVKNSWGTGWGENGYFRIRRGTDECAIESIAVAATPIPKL

Kd: 0.43 nM
Substance: BI 1291583
